Reference: ChEMBL document CHEMBL2176887, “Chemokine receptor antagonists” (J Med Chem, 2012)

Key:
[1] = target: T1, C-C chemokine receptor type 1 (Homo sapiens, UniProt P32246)
T1 sequence (P32246 whole entry): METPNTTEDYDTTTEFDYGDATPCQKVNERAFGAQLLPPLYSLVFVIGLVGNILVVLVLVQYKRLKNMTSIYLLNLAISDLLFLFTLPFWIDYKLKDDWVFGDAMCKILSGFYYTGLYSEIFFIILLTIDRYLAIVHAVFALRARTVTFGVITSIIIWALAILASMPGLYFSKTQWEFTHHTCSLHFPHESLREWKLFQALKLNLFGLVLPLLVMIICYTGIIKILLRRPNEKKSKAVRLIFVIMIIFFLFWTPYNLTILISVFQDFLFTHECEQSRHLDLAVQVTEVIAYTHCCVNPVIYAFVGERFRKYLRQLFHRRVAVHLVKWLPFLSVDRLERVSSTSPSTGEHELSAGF

physchem = details: octanol/water
Description: Lipophilicity, log P of the compound

Thromboxane A2 receptor = target: T2, Thromboxane A2 receptor (Homo sapiens, UniProt P21731)
T2 sequence (P21731 whole entry): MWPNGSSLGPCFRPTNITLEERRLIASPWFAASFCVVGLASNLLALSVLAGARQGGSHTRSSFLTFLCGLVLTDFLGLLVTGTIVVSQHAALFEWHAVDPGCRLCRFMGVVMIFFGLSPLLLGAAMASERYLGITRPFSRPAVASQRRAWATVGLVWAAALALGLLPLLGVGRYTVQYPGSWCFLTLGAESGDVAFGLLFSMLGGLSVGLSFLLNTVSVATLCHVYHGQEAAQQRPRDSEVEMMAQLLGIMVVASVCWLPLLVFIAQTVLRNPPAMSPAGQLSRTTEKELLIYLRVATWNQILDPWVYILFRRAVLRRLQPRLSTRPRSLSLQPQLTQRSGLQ
Description: Binding affinity to TXA2 receptor receptor

Histamine H1 receptor [2] = target: T3, Histamine H1 receptor (Homo sapiens, UniProt P35367); assay: Binding affinity to histamine H1 receptor
[3] = Oral bioavailability in beagle dog; format: ADME, organism-based, Canis lupus familiaris; details: in vivo
[4] = Half life in rat; format: ADME, organism-based; details: in vivo
[5] = target: T4, C-C chemokine receptor type 4 (Homo sapiens, UniProt P51679); assay: Binding affinity to CCR4
T4 sequence (P51679 whole entry): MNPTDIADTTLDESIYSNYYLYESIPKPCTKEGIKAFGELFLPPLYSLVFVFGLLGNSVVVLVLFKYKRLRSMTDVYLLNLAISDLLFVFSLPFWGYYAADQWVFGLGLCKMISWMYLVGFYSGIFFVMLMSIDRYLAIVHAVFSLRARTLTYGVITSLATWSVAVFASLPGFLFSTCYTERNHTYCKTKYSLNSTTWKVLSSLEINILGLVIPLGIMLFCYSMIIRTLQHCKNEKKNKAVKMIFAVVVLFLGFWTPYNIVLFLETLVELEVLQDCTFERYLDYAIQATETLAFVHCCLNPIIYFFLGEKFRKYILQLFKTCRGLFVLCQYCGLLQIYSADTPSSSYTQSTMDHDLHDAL

[6] = Half life in beagle dog; format: ADME, organism-based, Canis lupus familiaris; details: in vivo
[7] = Oral bioavailability in rat; format: ADME, organism-based; details: in vivo
[8] = target: C-C chemokine receptor type 5 (Homo sapiens, UniProt P51681)
[9] = tested on: Human immunodeficiency virus 1; assay: Antiviral activity against Human immunodeficiency virus 1 ADA; format: functional, organism-based
[10] = target: T5, Muscarinic acetylcholine receptor M2 (Homo sapiens, UniProt P08172)
T5 sequence (P08172 whole entry): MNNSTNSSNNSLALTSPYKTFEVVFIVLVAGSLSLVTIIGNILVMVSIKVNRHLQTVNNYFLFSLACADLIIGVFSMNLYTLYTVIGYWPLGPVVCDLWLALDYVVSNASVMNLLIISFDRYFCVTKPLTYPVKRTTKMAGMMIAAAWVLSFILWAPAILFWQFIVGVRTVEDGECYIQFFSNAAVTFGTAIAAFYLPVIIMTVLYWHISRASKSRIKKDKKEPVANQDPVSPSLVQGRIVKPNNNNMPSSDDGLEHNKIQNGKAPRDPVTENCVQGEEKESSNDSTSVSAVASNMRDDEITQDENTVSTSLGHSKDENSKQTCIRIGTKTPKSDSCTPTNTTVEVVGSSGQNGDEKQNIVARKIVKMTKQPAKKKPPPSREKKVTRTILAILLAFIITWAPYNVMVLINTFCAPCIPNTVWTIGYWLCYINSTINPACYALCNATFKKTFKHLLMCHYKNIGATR
Description: Binding affinity to muscarinic M2 receptor

[11] = tested on: Human immunodeficiency virus 1; assay: Antiviral activity against R5 tropic Human immunodeficiency virus 1; format: functional, organism-based
[12] = Oral bioavailability in monkey; format: ADME, organism-based, Macaca mulatta; details: rhesus monkey, in vivo
[13] = target: T6, C-X-C chemokine receptor type 2 (Homo sapiens, UniProt P25025)
T6 sequence (P25025 whole entry): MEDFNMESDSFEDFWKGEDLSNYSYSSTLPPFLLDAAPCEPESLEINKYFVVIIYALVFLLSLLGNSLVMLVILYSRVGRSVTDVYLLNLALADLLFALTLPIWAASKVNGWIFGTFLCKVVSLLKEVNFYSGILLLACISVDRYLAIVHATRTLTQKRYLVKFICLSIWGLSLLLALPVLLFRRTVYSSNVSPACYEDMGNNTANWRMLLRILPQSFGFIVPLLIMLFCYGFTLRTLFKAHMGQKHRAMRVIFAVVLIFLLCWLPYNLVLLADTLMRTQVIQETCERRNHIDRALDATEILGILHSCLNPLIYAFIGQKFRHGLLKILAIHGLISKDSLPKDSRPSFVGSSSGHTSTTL
Description: Binding affinity to CXCR2

[14] = target: T6, C-X-C chemokine receptor type 2; assay: Antagonist activity at CXCR2 assessed as inhibition of neutrophil CD11b up-regulation; format: functional
[15] = target: T7, C-X-C chemokine receptor type 1 (Homo sapiens, UniProt P25024)
T7 sequence (P25024 whole entry): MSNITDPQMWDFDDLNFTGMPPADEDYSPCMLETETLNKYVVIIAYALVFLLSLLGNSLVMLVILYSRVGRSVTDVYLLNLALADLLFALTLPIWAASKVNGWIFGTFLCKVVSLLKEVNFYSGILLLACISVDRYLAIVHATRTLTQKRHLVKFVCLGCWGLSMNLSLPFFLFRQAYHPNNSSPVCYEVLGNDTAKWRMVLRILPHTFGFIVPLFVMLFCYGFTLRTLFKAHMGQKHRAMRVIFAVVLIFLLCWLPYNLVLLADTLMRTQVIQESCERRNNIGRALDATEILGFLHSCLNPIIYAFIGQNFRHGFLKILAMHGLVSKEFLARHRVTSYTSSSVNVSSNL
Description: Binding affinity to CXCR1

[16] = target: T8, C-C chemokine receptor type 3 (Homo sapiens, UniProt P51677); assay: Antagonist activity at human CCR3 assessed as inhibition of CCL11-induced calcium influx by cell based assay; format: functional
T8 sequence (P51677 whole entry): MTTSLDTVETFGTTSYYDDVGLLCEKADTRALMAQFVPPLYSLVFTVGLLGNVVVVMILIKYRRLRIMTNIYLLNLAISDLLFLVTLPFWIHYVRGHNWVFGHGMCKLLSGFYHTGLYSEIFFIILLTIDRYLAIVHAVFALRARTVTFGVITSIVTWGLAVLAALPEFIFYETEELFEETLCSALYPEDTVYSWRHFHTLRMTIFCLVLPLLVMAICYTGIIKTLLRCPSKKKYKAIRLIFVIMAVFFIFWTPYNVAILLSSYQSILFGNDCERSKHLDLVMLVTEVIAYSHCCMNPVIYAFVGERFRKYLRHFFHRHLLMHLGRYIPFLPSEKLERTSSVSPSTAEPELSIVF

Histamine H1 receptor [17] = target: T3, Histamine H1 receptor; assay: Antagonist activity at histamine H1 receptor expressed in human PC3 cells inhibition of histamine-induced calcium influx by cell based assay; format: functional, PC-3
[18] = target: T9, Type-1 angiotensin II receptor (Homo sapiens, UniProt P30556)
T9 sequence (P30556 whole entry): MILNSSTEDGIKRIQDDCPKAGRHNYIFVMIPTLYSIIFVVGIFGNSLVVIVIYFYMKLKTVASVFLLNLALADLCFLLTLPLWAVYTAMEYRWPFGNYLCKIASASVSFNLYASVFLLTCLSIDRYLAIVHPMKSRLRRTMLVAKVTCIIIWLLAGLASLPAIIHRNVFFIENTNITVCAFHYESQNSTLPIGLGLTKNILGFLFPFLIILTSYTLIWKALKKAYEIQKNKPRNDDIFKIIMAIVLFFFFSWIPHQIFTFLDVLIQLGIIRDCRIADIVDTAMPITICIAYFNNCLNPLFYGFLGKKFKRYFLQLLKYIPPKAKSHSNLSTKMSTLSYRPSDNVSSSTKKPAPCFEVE
Description: Binding affinity to AT1 receptor

[19] = tested on: Human immunodeficiency virus 1; assay: Antiviral activity against CCR5-tropic HIV1; format: functional
[20] = Half life in human; format: ADME, organism-based; details: in vivo
[21] = tested on: Human immunodeficiency virus 1; assay: Antiviral activity against Human immunodeficiency virus 1 clinical isolate; format: functional, organism-based
[22] = octanol/water
Description: Lipophilicity, log P of the compound

[23] = Oral bioavailability in dog; format: ADME, organism-based, Canis lupus familiaris; details: in vivo
[24] = Half life in dog; format: ADME, organism-based, Canis lupus familiaris; details: in vivo
[25] = target: T8, C-C chemokine receptor type 3

C-C chemokine receptor type 5, sequence (P51681 whole entry): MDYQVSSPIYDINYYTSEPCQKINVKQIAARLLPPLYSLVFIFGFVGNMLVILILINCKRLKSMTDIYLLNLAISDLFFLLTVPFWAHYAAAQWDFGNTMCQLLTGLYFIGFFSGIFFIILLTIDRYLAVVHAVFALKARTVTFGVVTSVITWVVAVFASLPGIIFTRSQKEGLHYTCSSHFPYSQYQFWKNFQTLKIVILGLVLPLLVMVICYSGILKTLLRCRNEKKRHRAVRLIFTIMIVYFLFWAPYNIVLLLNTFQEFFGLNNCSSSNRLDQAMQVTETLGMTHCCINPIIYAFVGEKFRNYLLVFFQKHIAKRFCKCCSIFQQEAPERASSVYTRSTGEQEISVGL
T3 sequence (P35367 whole entry): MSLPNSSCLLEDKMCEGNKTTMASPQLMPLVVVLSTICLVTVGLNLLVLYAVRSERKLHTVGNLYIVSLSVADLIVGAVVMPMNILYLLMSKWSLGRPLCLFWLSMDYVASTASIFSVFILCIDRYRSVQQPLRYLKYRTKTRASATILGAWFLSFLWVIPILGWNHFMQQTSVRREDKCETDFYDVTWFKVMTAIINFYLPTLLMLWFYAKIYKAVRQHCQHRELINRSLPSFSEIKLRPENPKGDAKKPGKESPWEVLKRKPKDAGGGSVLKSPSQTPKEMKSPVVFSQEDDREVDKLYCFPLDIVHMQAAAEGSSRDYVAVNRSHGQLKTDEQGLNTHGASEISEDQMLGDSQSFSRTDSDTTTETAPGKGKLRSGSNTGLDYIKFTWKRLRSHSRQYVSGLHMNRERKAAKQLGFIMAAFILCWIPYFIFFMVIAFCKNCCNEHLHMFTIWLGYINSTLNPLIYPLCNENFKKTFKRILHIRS

Cc1nnc(C(=O)NC(C)(C)c2nc(C(=O)NCc3ccc(F)cc3)c(O)c(=O)n2C)o1
Ki [1]: 5 nM | logP (physchem): 2.4

O=C(O)Cc1ccc2c(c1)/C(=C/CN1CCCC(Cc3ccccc3)C1)c1ccccc1CO2 (configuration not stated)
Ki (Thromboxane A2 receptor): 740 nM | Ki (Histamine H1 receptor [2]): 20 nM

CC(=O)Nc1ccc(O)cc1OC[C@@](C)(O)CNC1CCN(Cc2ccc(Cl)cc2)CC1 [AZD4818]
Ki [1]: 5 nM | logP (physchem): 1.9

CC(C)(C)c1ccc(S(=O)(=O)Nc2ccc(Cl)cc2C(=O)c2cc[n+]([O-])cc2)cc1 [VERCIRNON]
logP (physchem): 4.7

O=C(O)Cc1ccc2c(c1)/C(=C/Cn1cnc3ccccc31)c1ccccc1CO2
Ki (Thromboxane A2 receptor): 15 nM

CN(C)C/C=C1\c2ccccc2COc2ccc(CC(=O)O)cc21
Ki (Thromboxane A2 receptor): > 1000 nM

COc1cccc2c1c(NS(=O)(=O)c1ccc(Cl)s1)nn2Cc1cccc(NC(=O)CO)c1 [GSK-2239633]
bioavailability [3]: 97% | half-life [4]: 2.5 h | Ki [5]: 10 nM | half-life [6]: 2.6 h | bioavailability [7]: 85%

CCO/N=C(\c1ccc(Br)cc1)C1CCN(C2(C)CCN(C(=O)c3c(C)cc[n+]([O-])c3C)CC2)CC1 [ANCRIVIROC]
Ki [8]: 2 nM | IC50 [9]: 0.6 nM

CCOc1ccc(-n2c([C@@H](C)N(Cc3cccnc3)C(=O)Cc3ccc(OC(F)(F)F)cc3)nc3ncccc3c2=O)cc1
logP (physchem): 3.8

CC(C)(O)CC[C@H](C[C@H](O)[C@H](Cc1cccc(F)c1)NC(=O)c1cnc2ccccc2n1)C(N)=O
Ki [10]: 1320 nM | Ki [8]: 66 nM

CC[C@@H](Nc1c(Nc2cccc(C(=O)N(C)C)c2O)c(=O)c1=O)c1ccc(C)o1 [NAVARIXIN ANHYDROUS]
logP (physchem): 1

CCCCN1C(=O)[C@@H]([C@H](O)C2CCCCC2)NC(=O)C12CCN(Cc1ccc(Oc3ccc(C(=O)O)cc3)cc1)CC2 [APLAVIROC]
IC50 [11]: 0.1 nM | logP (physchem): 3.8 | bioavailability [12]: 30%

O=C(Nc1ccc(Cl)c(S(=O)(=O)N2CCNCC2)c1O)Nc1cccc(F)c1Cl [ELUBRIXIN]
logP (physchem): 4.2 | IC50 [13]: 5.1 nM | IC50 [14]: 261 nM | IC50 [15]: > 10000 nM

NCC1CCCN(C(=O)c2ccc3c(c2)C(C(=O)NC2CCN(C/C4=C/CCCCCCC4)CC2)c2ccccc2O3)C1 (configuration not stated)
Ki [1]: 1.8 nM

Cc1nnc(C(C)C)n1[C@@H]1C[C@H]2CC[C@@H](C1)N2CC[C@H](NC(=O)C1CCC(F)(F)CC1)c1ccccc1 [MARAVIROC]
logP (physchem): 4.4

Cc1ccc(C(=O)N2CCC(=CC(=O)N[C@@H]3CCN(Cc4ccc5cc(F)ccc5c4)C3)CC2)nn1
Ki [16]: 1.8 nM | Ki (Histamine H1 receptor [17]): 47 nM

Cc1ccc(S(=O)(=O)NC(=O)N2CCC(N3CCC(Oc4ccc(Cl)c(Cl)c4)CC3)CC2)cc1
logP (physchem): 3.8

COC[C@@H](c1ccc(C(F)(F)F)cc1)N1CCN(C2(C)CCN(C(=O)c3c(C)ncnc3C)CC2)C[C@@H]1C [VICRIVIROC]
logP (physchem): 3.6

CCO[C@@H]1Cc2cc(C(F)(F)F)ccc2[C@H]1N1CCN(C2(C)CCN(C(=O)c3c(C)ncnc3C)CC2)C[C@@H]1C [INCB-9471]
IC50 [8]: 3.1 nM | logP (physchem): 3.9

CCN(C(=O)Cc1ccc(S(C)(=O)=O)cc1)C1CCN(CC[C@@H](c2cc(F)cc(F)c2)C2CCC(S(C)(=O)=O)CC2)CC1 (some centres not stated) [AZD-5363]
IC50 [8]: 0.17 nM | logP (physchem): 3.1

Cc1noc(NS(=O)(=O)c2ccccc2-c2ccc(-c3ncco3)cc2)c1C
Ki [18]: > 10000 nM

Cc1nnc(C(C)C)n1[C@H]1C[C@H]2CC[C@@H](C1)N2CC[C@H](NC(=O)C1CCC(F)(F)CC1)c1ccccc1 [MARAVIROC]
IC90 [19]: 2 nM

CCCCOCCOc1ccc(-c2ccc3c(c2)/C=C(/C(=O)Nc2ccc([S@@+]([O-])Cc4cncn4CCC)cc2)CCCN3CC(C)C)cc1 [CENICRIVIROC]
half-life [20]: 35 h | EC50 [21]: 0.061 nM | logP [22]: 10.2

c1cc(CN2CCCNCCNCCCNCC2)ccc1CN1CCCNCCNCCCNCC1 [PLERIXAFOR]
logP [22]: -0.4

NC(=O)c1ccc(CNC(=O)NC[C@@H]2CN(Cc3ccc(Cl)c(Cl)c3)CCO2)cc1
logP (physchem): 2.2 | bioavailability [23]: 89% | half-life [24]: 2.8 h | IC50 [25]: 10 nM
